US9073940B2, “Tricyclic pyrazol amine derivatives” (MERCK SERONO SA, priority 2009, dated 2015)
pIC50: −log10 of the molar value.

Each molecule was assayed on 4 PI3K isoforms (Human recombinant GST-PI3K) (assay: PI3K scintillation proximity assay, best IC50 obtained with the four isoforms (alpha, beta, delta, gamma)). Settings: best IC50 obtained with the four isoforms of PI3K; read-out: Best potency measured on the 4 PI3K isoforms.
Assay type: biochemical

pIC50 | Compound
4.86 | CC1COCCN1C(=O)c1nn(-c2ccccc2)c2c1CS(=O)(=O)c1ccccc1-2 (centres unmarked) [Example 338, 3-[(3-Methylmorpholin-4-yl)carbonyl]-1-phenyl-1,4-dihydrothiochromeno[4,3-c]pyrazole 5,5-dioxide]
6.74 | CC1COCCN1Cc1ccc(-n2nc(C(=O)N3CCOCC3)c3c2-c2ccccc2S(=O)(=O)C3)cc1 (centres unmarked) [Example 357, 1-{4-[(3-Methylmorpholin-4-yl)methyl]phenyl}-3-(morpholin-4-ylcarbonyl)-1,4-dihydrothiochromeno[4,3-c]pyrazole 5,5-dioxide]
6.79 | COCCNCc1ccc(-n2nc(C(=O)N3CCOCC3)c3c2-c2ccccc2S(=O)(=O)C3)cc1 [Example 431, 2-Methoxy-N-{4-[3-(morpholin-4-ylcarbonyl)-5,5-dioxidothiochromeno[4,3-c]pyrazol-1(4H)-yl]benzyl}ethanamine]
5.10 | NC(=O)c1cccc2c1S(=O)(=O)Cc1c(C(=O)N3CCOCC3)nn(-c3ccccc3)c1-2 [Example 250, 3-(Morpholin-4-ylcarbonyl)-1-phenyl-1,4-dihydrothiochromeno[4,3-c]pyrazole-6-carboxamide 5,5-dioxide]
6.71 | O=C(c1nn(-c2cccc(-c3ccncc3)c2)c2c1CS(=O)(=O)c1ccccc1-2)N1CCOCC1 [Example 187, 3-(Morpholin-4-ylcarbonyl)-1-(3-pyridin-4-ylphenyl)-1,4-dihydrothiochromeno[4,3-c]pyrazole 5,5-dioxide]
6.55 | CC(=O)Nc1nc2c(s1)S(=O)(=O)Cc1c(C(=O)N3CCOCC3)nn(C3CCOCC3)c1-2 [Example 289, N-[3-(Morpholin-4-ylcarbonyl)-5,5-dioxido-1-(tetrahydro-2H-pyran-4-yl)-1,4-dihydropyrazolo[3′,4′:4,5]thiopyrano[3,2-d][1,3]thiazol-7-yl]acetamide]
5.29 | COCCCC1c2c(C(=O)N3CCOCC3)nn(-c3ccccc3)c2-c2ccccc2S1(=O)=O (centres unmarked) [Example 112, 4-(3-Methoxypropyl)-3-(morpholin-4-ylcarbonyl)-1-phenyl-1,4-dihydrothiochromeno[4,3-c]pyrazole 5,5-dioxide]
5.82 | Cc1ccc2c(c1)-c1c(c(C(=O)N3CCOCC3)nn1-c1ccccc1)CS2(=O)=O [Example 129, 8-Methyl-3-(morpholin-4-ylcarbonyl)-1-phenyl-1,4-dihydrothiochromeno[4,3-c]pyrazole 5,5-dioxide]
7.62 | COc1ccc2c(c1)S(=O)(=O)Cc1c(C(=O)N3CCOCC3)nn([C@H]3CCCN(CCN4CCOCC4)C3)c1-2 (single isomer, unassigned) [Example 383, 7-methoxy-3-(morpholin-4-ylcarbonyl)-1-[1-(2-morpholin-4-ylethyl)piperidin-3-yl]-1,4-dihydrothiochromeno[4,3-c]pyrazole 5,5-dioxide]
6.46 | O=C(CC1CCOCC1)N1CCC[C@H](n2nc(C(=O)N3CCOCC3)c3c2-c2ccccc2S(=O)(=O)C3)C1 [Example 398]
5.99 | O=C(c1nn(C2CCOCC2)c2c1CS(=O)(=O)c1c(F)cccc1-2)N1CCOCC1 [Example 249, 6-Fluoro-3-(morpholin-4-ylcarbonyl)-1-(tetrahydro-2H-pyran-4-yl)-1,4-dihydrothiochromeno[4,3-c]pyrazole 5,5-dioxide]
7.74 | CN1CCCC(N2CCC[C@H](n3nc(C(=O)N4CCOCC4)c4c3-c3ccccc3S(=O)(=O)C4)C2)C1 (stereo in doubt) [Example 459, 1-[1′-methyl-1,3′-bipiperidin-3-yl]-3-(morpholin-4-ylcarbonyl)-1,4-dihydrothiochromeno[4,3-c]pyrazole 5,5-dioxide]
7.47 | O=C(c1nn([C@H]2CCCN(CCC3CCOCC3)C2)c2c1CS(=O)(=O)c1ccccc1-2)N1CCOCC1 (single isomer, unassigned) [Example 306, 3-(morpholin-4-ylcarbonyl)-1-{1-[2-(tetrahydro-2H-pyran-4-yl)ethyl]piperidin-3-yl}-1,4-dihydrothiochromeno[4,3-c]pyrazole 5,5-dioxide]
7.82 | O=C(c1nn([C@H]2CCCN(CCN3CCCCC3)C2)c2c1CS(=O)(=O)c1ccccc1-2)N1CCOCC1 (stereo in doubt) [Example 465, 3-(morpholin-4-ylcarbonyl)-1-[1-(2-piperidin-1-ylethyl)piperidin-3-yl]-1,4-dihydrothiochromeno[4,3-c]pyrazole 5,5-dioxide]
5.28 | O=C(c1nn([C@@H]2CCCN(CCN3CCOCC3)C2)c2c1CS(=O)(=O)c1c(Cl)cccc1-2)N1CCOCC1 [Example 387]
5.79 | O=C(c1nn(-c2ccc3[nH]ncc3c2)c2c1CS(=O)(=O)c1ccccc1-2)N1CCOCC1 [Example 203, 1-(1H-Indazol-5-yl)-3-(morpholin-4-ylcarbonyl)-1,4-dihydrothiochromeno[4,3-c]pyrazole 5,5-dioxide]

pIC50 | Compound
6.11 | CN1CCCC(n2nc(C(=O)N3CCOCC3)c3c2-c2ccccc2S(=O)(=O)C3)C1 (centres unmarked) [Example 77, 1-(1-Methylpiperidin-3-yl)-3-(morpholin-4-ylcarbonyl)-1,4-dihydrothiochromeno[4,3-c]pyrazole 5,5-dioxide]
5.52 | O=C(c1ccc2c(c1)-c1c(c(C(=O)N3CCOCC3)nn1-c1ccccc1)CS2(=O)=O)N1CCOCC1 [Example 116, 3,8-Bis(morpholin-4-ylcarbonyl)-1-phenyl-1,4-dihydrothiochromeno[4,3-c]pyrazole 5,5-dioxide]
6.18 | Cc1nc2ccc(-n3nc(C(=O)N4CCOCC4)c4c3-c3ccccc3S(=O)(=O)C4)cc2s1 [Example 24, 1-(2-methyl-1,3-benzothiazol-6-yl)-3-(morpholin-4-ylcarbonyl)-1,4-dihydrothiochromeno[4,3-c]pyrazole 5,5-dioxide]
7.54 | CC1CN(CCN2CCC[C@H](n3nc(C(=O)N4CCOCC4)c4c3-c3ccccc3S(=O)(=O)C4)C2)CCO1 (single isomer, unassigned) [Example 385, 1-{1-[2-(2-methylmorpholin-4-yl)ethyl]piperidin-3-yl}-3-(morpholin-4-ylcarbonyl)-1,4-dihydrothiochromeno[4,3-c]pyrazole 5,5-dioxide]
5.18 | COCCNc1ccc2c(c1)S(=O)(=O)Cc1c(C(=O)N3CCOCC3)nn(-c3ccccc3)c1-2 [Example 327]
5.92 | CC(C)(C)OC(=O)N1CCC(n2nc(C(=O)N3CCOCC3)c3c2-c2ccccc2S(=O)(=O)C3)C1 (centres unmarked) [Example 254]
5.86 | COCCNc1ccc2c(c1)-c1c(c(C(=O)N3CCOCC3)nn1C1CCCCC1)CS2(=O)=O [Example 89]
5.43 | O=C(c1nn([C@H]2CCN(CCN3CCC(F)CC3)C2)c2c1CS(=O)(=O)c1ccccc1-2)N1CCOCC1 (single isomer, unassigned) [Example 410, 1-{1-[2-(4-fluoropiperidin-1-yl)ethyl]pyrrolidin-3-yl}-3-(morpholin-4-ylcarbonyl)-1,4-dihydrothiochromeno[4,3-c]pyrazole 5,5-dioxide]
5.91 | CN1CCCC1CCn1nc(C(=O)N2CCOCC2)c2c1-c1ccccc1S(=O)(=O)C2 (centres unmarked) [Example 71, 1-[2-(1-Methylpyrrolidin-2-yl)ethyl]-3-(morpholin-4-ylcarbonyl)-1,4-dihydrothiochromeno[4,3-c]pyrazole 5,5-dioxide]
6.02 | CC(C)Cn1nc(C(=O)N2CCOCC2)c2c1-c1ccccc1S(=O)(=O)C2 [Example 50, 1-isobutyl-3-(morpholin-4-ylcarbonyl)-1,4-dihydrothiochromeno[4,3-c]pyrazole 5,5-dioxide]
5.84 | O=C(c1nn(CCc2ccccc2)c2c1CS(=O)(=O)c1ccccc1-2)N1CCOCC1 [Example 41, 3-(morpholin-4-ylcarbonyl)-1-(2-phenylethyl)-1,4-dihydrothiochromeno[4,3-c]pyrazole 5,5-dioxide]
7.60 | O=C(c1nn([C@H]2CCCN(C3CCCOC3)C2)c2c1CS(=O)(=O)c1c(F)cccc1-2)N1CCOCC1 (stereo in doubt) [Example 425, 6-Fluoro-3-(morpholin-4-ylcarbonyl)-1-[1-(tetrahydro-2H-pyran-3-yl)piperidin-3-yl]-1,4-dihydrothiochromeno[4,3-c]pyrazole 5,5-dioxide]
5.72 | CCc1noc(Cn2nc(C(=O)N3CCOCC3)c3c2-c2ccccc2S(=O)(=O)C3)n1 [Example 230, 1-[(3-Ethyl-1,2,4-oxadiazol-5-yl)methyl]-3-(morpholin-4-ylcarbonyl)-1,4-dihydrothiochromeno[4,3-c]pyrazole 5,5-dioxide]
6.55 | O=C(c1nn(-c2ccc(CN3CCCC3)cc2)c2c1CS(=O)(=O)c1ccccc1-2)N1CCOCC1 [Example 228, 3-(Morpholin-4-ylcarbonyl)-1-[4-(pyrrolidin-1-ylmethyl)phenyl]-1,4-dihydrothiochromeno[4,3-c]pyrazole 5,5-dioxide]
5.66 | COc1ccc(-n2nc(C(=O)N3CCOCC3)c3c2-c2ccccc2S(=O)(=O)C3)cn1 [Example 131, 1-(6-Methoxypyridin-3-yl)-3-(morpholin-4-ylcarbonyl)-1,4-dihydrothiochromeno[4,3-c]pyrazole 5,5-dioxide]

Compound | pIC50
O=C(c1nn(C2CN3CCC2CC3)c2c1CS(=O)(=O)c1ccccc1-2)N1CCOCC1 (centres unmarked) [Example 393] | 4.99
CC(C)(C)C1CCC(n2nc(C(=O)N3CCOCC3)c3c2-c2ccccc2S(=O)(=O)C3)CC1 (centres unmarked) [Example 94, 1-(4-tert-Butylcyclohexyl)-3-(morpholin-4-ylcarbonyl)-1,4-dihydrothiochromeno[4,3-c]pyrazole 5,5-dioxide] | 5.39

Same assay, conditions: inhibition at 20 μM

Compound | Best potency measured on the 4 PI3K isoforms, % inh @20 μM [% inh @20 μM]
CC(C)c1ccccc1-n1nc(C(=O)N2CCOCC2)c2c1-c1ccccc1S(=O)(=O)C2 [Example 312, 1-(2-Isopropylphenyl)-3-(morpholin-4-ylcarbonyl)-1,4-dihydrothiochromeno[4,3-c]pyrazole 5,5-dioxide] | 47
O=C(c1nn(-c2cccc(-c3nn[nH]n3)c2)c2c1CS(=O)(=O)c1ccccc1-2)N1CCOCC1 [Example 325] | 19
